# Numbered stars: 1 amine (or outer) side, 2 acyl side, 3 side chain; on linkers, the order of the positions; unused ones are H or OH. Square brackets hold non-standard residues; d marks the D form. Side chains are listed from the residue outwards. Peptide text beside a SMILES is read from it. * marks the point of attachment. C18 diacid = O=C(O)CCCCCCCCCCCCCCCCC(=O)*; γGlu = O=C(O)[C@H](CCC(=O)[*:2])N[*:1]; Ac4c = NC1(C(=O)O)CCC1; AEEA = NCCOCCOCC(=O)O; Aib = CC(C)(N)C(=O)O
# Assays:
# DIO mice = experiment: In vivo test in diet-induced obese (DIO) mice: body weight and blood glucose; design: species or system c57bl/6J mice; details: for Percent BW of baseline at week 5 (mean ± SD): s.c. once daily 5 weeks, co-agonists 5 then 10 nmol/kg, liraglutide 100 nmol/kg
# Excerpt: The purpose of this experiment was to investigate effect of the glucagon-GLP-1R co-agonists from Example 8 and Example 12 on body weight and blood glucose in vivo in DIO mice. Liraglutide (a human GLP-1 analogue marketed by Novo Nordisk NS under the brand name VictozaTM) was included for comparison. Male […]/6J mice obtained from Jackson Lab (USA) were fed a high fat diet (Research Diets D12451, 45% kcal fat) to obtain approximately 50% overweight compared to age-matched lean control mice. The DIO mice are characterized by normoglycemia, insulin resistance and obesity. […] The co-agonists, i.e. the glucagon derivatives, were dissolved in 50 mM Na2HPO4, 145 mM NaCl og 0.05% Tween 80, pH 7.4, while liraglutide was diluted from 6 mg/ml VictozaTM pens in DPBS buffer (Invitrogen) containing 0.5% rat serum albumin. Vehicle treated animals received 50 mM Na2HPO4, 145 mM NaCl og 0.05% Tween 80, pH 7.4. Compounds and vehicle were dosed (1 ml/kg) for 5 weeks s.c. once daily just prior to lights out. For the first half of the study co-agonists were administered at a dose of 5 nmol/kg and for the second half of the study co-agonists were administered at a dose of 10 nmol/kg. For comparison, liraglutide at a dose of 100 nmol/kg, likewise dosed s.c. once daily, was included. Body weight was monitored before dosing, daily during the dosing period. Non-fasted blood glucose was measured on the day of initiation of dosing and weekly during the dosing period, prior to dosing. Blood for measurement of blood glucose was taken from the tail tip capillary and blood glucose was measured using a glucose analyzer (Biosen 5040) based on the glucose oxidase method. The body weight reduction/body weight at the end of the 5 week treatment period and area under the blood glucose curve during the five week treatment period are given in the tables below.
# human glucagon receptor = molecular target: T1, human glucagon receptor (Homo sapiens, UniProt P47871); experiment: Glucagon receptor potency, CRE luciferase reporter gene assay in BHK cells; assay type: cell-based; details: BHK cells expressing human glucagon receptor, read-out: EC50 GlucR
# T1 construct: expressed in transfected cells; host or cells: BHK cells (parent BHK570, CRE luciferase clone BHK/KZ10-20-48), clone pLJ6'-4-25
# T1 sequence (P47871 26-477): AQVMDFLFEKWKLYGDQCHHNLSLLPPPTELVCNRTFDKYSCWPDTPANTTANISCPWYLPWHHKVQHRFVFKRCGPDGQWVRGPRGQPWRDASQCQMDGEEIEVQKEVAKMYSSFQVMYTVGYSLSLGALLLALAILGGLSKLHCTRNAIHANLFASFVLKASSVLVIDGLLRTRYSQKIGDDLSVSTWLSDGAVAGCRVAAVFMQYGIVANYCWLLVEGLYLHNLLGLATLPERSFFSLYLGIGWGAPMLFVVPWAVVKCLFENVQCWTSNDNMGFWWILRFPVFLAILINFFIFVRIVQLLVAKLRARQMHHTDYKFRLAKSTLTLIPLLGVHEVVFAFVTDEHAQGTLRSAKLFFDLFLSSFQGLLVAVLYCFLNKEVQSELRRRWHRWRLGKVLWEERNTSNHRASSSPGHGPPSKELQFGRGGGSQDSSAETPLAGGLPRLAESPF
# Method in brief: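 EC50 (pM) comes from a four-parameter fit of luciferase luminescence after 3 h at 37 °C with compound at final 1×10EE-13–1×10EE-6 M. Cells: BHK570-derived line carrying human glucagon receptor plus CRE-luciferase, 5×10EE3/well, in assay medium with 2% ovalbumin, 0.2% Pluronic F-68.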
EC50 (human glucagon receptor) [pM],Structure (SMILES),Percent BW of baseline at week 5 (mean ± SD) (DIO mice),lowering of body weight in vivo (DIO mice; 5 weeks s.c. once daily)
,"CC(C)C[C@H](NC(=O)[C@H](CC(C)C)NC(=O)[C@H](Cc1c[nH]c2ccccc12)NC(=O)[C@H](CCC(N)=O)NC(=O)[C@@H](NC(=O)[C@H](Cc1ccccc1)NC(=O)[C@H](CCC(=O)O)NC(=O)[C@H](CCC(N)=O)NC(=O)[C@H](C)NC(=O)[C@H](C)NC(=O)[C@H](CCCCN)NC(=O)[C@H](CO)NC(=O)[C@H](CC(=O)O)NC(=O)[C@H](CC(C)C)NC(=O)[C@H](Cc1ccc(O)cc1)NC(=O)[C@H](CCCCN)NC(=O)[C@H](CO)NC(=O)[C@H](CC(C)C)NC(=O)[C@H](CC(=O)O)NC(=O)[C@H](CO)NC(=O)[C@@H](NC(=O)[C@H](Cc1ccccc1)NC(=O)[C@@H](NC(=O)CNC(=O)[C@H](CCC(N)=O)NC(=O)C(C)(C)NC(=O)[C@@H](N)Cc1c[nH]cn1)[C@@H](C)O)[C@@H](C)O)C(C)C)C(=O)N[C@@H](CC(N)=O)C(=O)N[C@@H](CCCCNC(=O)CC[C@H](NC(=O)CC[C@H](NC(=O)COCCOCCNC(=O)COCCOCCNC(=O)CC[C@H](NC(=O)CCCCCCCCCCCCCCCCC(=O)O)C(=O)O)C(=O)O)C(=O)O)C(N)=O [Example 8, N^ε29-[(4S)-4-carboxy-4-[[(4S)-4-carboxy-4-[[2-[2-[2-[[2-[2-[2-[[(4S)-4-carboxy-4-(17-carboxyheptadecanoylamino)butanoyl]amino]ethoxy]ethoxy]acetyl]amino]ethoxy]ethoxy]acetyl]amino]butanoyl]amino]butanoyl]-[Aib2,Leu10,Lys17,Ala18,Glu21,Leu27,Lys29]-Glucagon amide] (H-H[Aib]QGTFTSDLSKYLDSKAAQEFVQWLLNK([γGlu-γGlu-AEEA-AEEA-γGlu-C18 diacid])-NH2; N-terminus assumed)",88% ± 8%,
,"CC(C)C[C@H](NC(=O)[C@H](CC(C)C)NC(=O)[C@H](Cc1c[nH]c2ccccc12)NC(=O)[C@H](CCC(N)=O)NC(=O)[C@@H](NC(=O)[C@H](Cc1ccccc1)NC(=O)[C@H](CCC(=O)O)NC(=O)[C@H](CCCNC(=N)N)NC(=O)[C@H](C)NC(=O)[C@H](CCCNC(=N)N)NC(=O)[C@H](CCCNC(=N)N)NC(=O)[C@H](CO)NC(=O)[C@H](CC(=O)O)NC(=O)[C@H](CC(C)C)NC(=O)[C@H](Cc1ccc(O)cc1)NC(=O)[C@H](CCCCN)NC(=O)[C@H](CO)NC(=O)[C@H](CC(C)C)NC(=O)[C@H](CC(=O)O)NC(=O)[C@H](CO)NC(=O)[C@@H](NC(=O)[C@H](Cc1ccccc1)NC(=O)[C@@H](NC(=O)CNC(=O)[C@H](CCC(N)=O)NC(=O)C(C)(C)NC(=O)[C@@H](N)Cc1c[nH]cn1)[C@@H](C)O)[C@@H](C)O)C(C)C)C(=O)N[C@@H](CC(N)=O)C(=O)N[C@@H](CCCCNC(=O)CC[C@H](NC(=O)CC[C@H](NC(=O)COCCOCCNC(=O)COCCOCCNC(=O)CC[C@H](NC(=O)CCCCCCCCCCCCCCCCC(=O)O)C(=O)O)C(=O)O)C(=O)O)C(N)=O [Example 12, N^ε29-[(4S)-4-carboxy-4-[[(4S)-4-carboxy-4-[[2-[2-[2-[[2-[2-[2-[[(4S)-4-carboxy-4-(17-carboxyheptadecanoylamino)butanoyl]amino]ethoxy]ethoxy]acetyl]amino]ethoxy]ethoxy]acetyl]amino]butanoyl]amino]butanoyl]-[Aib2,Leu10,Arg20,Glu21,Leu27,Lys29]-Glucagon amide] (H-H[Aib]QGTFTSDLSKYLDSRRAREFVQWLLNK([γGlu-γGlu-AEEA-AEEA-γGlu-C18 diacid])-NH2)",75% ± 8%,tends to be superior to liraglutide alone
5,"CC(C)C[C@H](NC(=O)[C@H](Cc1ccc(O)cc1)NC(=O)[C@H](CCCCN)NC(=O)[C@H](CO)NC(=O)[C@H](CC(C)C)NC(=O)[C@H](CC(=O)O)NC(=O)[C@H](CO)NC(=O)[C@@H](NC(=O)[C@H](Cc1ccccc1)NC(=O)[C@@H](NC(=O)CNC(=O)[C@H](CCC(N)=O)NC(=O)C1(NC(=O)[C@@H](N)Cc2c[nH]cn2)CCC1)[C@@H](C)O)[C@@H](C)O)C(=O)N[C@@H](CCC(=O)O)C(=O)N[C@@H](CO)C(=O)N[C@@H](CCCCN)C(=O)N[C@@H](CCCNC(=N)N)C(=O)N[C@@H](C)C(=O)N[C@@H](CCCNC(=N)N)C(=O)N[C@@H](CCC(=O)O)C(=O)N[C@@H](Cc1ccccc1)C(=O)N[C@H](C(=O)N[C@@H](CCC(N)=O)C(=O)N[C@@H](Cc1c[nH]c2ccccc12)C(=O)N[C@@H](CC(C)C)C(=O)N[C@@H](CC(C)C)C(=O)N[C@@H](CCCCNC(=O)CC[C@H](NC(=O)CC[C@H](NC(=O)[C@H](CO)NC(=O)[C@H](CCC(=O)O)NC(=O)[C@H](CO)NC(=O)CC[C@H](NC(=O)CC[C@H](NC(=O)CCCCCCCCCCCCCCCCC(=O)O)C(=O)O)C(=O)O)C(=O)O)C(=O)O)C(=O)N[C@H](C(N)=O)[C@@H](C)O)C(C)C [Example 68, N^ε28-[(4S)-4-carboxy-4-[[(4S)-4-carboxy-4-[[(2S)-2-[[(2S)-4-carboxy-2-[[(2S)-2-[[(4S)-4-carboxy-4-[[(4S)-4-carboxy-4-(17-carboxyheptadecanoylamino)butanoyl]amino]butanoyl]amino]-3-hydroxypropanoyl]amino]butanoyl]amino]-3-hydroxypropanoyl]amino]butanoyl]amino]butanoyl]-[Acb2,Leu10,Glu15,Lys17,Arg20,Glu21,Leu27,Lys28]-Glucagon amide] (H-H[Ac4c]QGTFTSDLSKYLESKRAREFVQWLLK([γGlu-γGlu-Ser-Glu-Ser-γGlu-γGlu-C18 diacid])T-NH2; N-terminus assumed)",,

# From US9474790B2, “Stable, protracted GLP-1/glucagon receptor co-agonists for medical use” (Novo Nordisk A/S, priority 2013, dated 2016)
